Measured values from ChEMBL document CHEMBL1201862, “PubChem BioAssay data set” (2004).
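Exposure lasted 48 hours, with cells grown in 96-well plates and compounds tested at five concentrations. At the GI50, growth is halved.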 The source made the active and inactive calls. Rule as the data show it: active = GI50 up to about 1.1 µM and inactive = higher.

Legend:
Experiment in all cases: NCI anticancer screen, dose series, 48 h
A498 = test system: A498
ACHN = test system: ACHN
HCT-116 = test system: HCT-116
HOP-92 = test system: HOP-92
IGROV-1 = test system: IGROV-1
NCI-H226 = test system: NCI-H226
NCI-H23 = test system: NCI-H23
NCI-H460 = test system: NCI-H460
OVCAR-5 = test system: OVCAR-5
OVCAR-8 = test system: OVCAR-8
RPMI-8226 = test system: RPMI-8226
SF-268 = test system: SF-268
SF-539 = test system: SF-539
SK-MEL-2 = test system: SK-MEL-2
SK-MEL-5 = test system: SK-MEL-5
SK-OV-3 = test system: SK-OV-3
SR = test system: SR
TK-10 = test system: TK-10
U-251 = test system: U-251
UACC-257 = test system: UACC-257

Row | SMILES | GI50 (A498) | GI50 (ACHN) | GI50 (HCT-116) | GI50 (HOP-92) | GI50 (IGROV-1) | GI50 (NCI-H226) | GI50 (NCI-H23) | GI50 (NCI-H460) | GI50 (OVCAR-5) | GI50 (OVCAR-8) | GI50 (RPMI-8226) | GI50 (SF-268) | GI50 (SF-539) | GI50 (SK-MEL-2) | GI50 (SK-MEL-5) | GI50 (SK-OV-3) | GI50 (SR) | GI50 (TK-10) | GI50 (U-251) | GI50 (UACC-257)
1 | C=C1c2nc3ccccc3n2C=C(c2ccccc2)N1c1ccc([N+](=O)[O-])cc1 | 8.38 µM (inactive) | 1.67 µM (inactive) | 2.52 µM (inactive) | 3.9 µM (inactive) | 4.84 µM (inactive) | 5.5 µM (inactive) | 9.38 µM (inactive) | 1.72 µM (inactive) | 10.7 µM (inactive) | 4.49 µM (inactive) | 8.81 µM (inactive) | 8.11 µM (inactive) | 1.05 µM (active) | 17.7 µM (inactive) | 4.02 µM (inactive) | 1.79 µM (inactive) | 4.95 µM (inactive) | 4.32 µM (inactive) | 5.33 µM (inactive) | 15.3 µM (inactive)
2 | Cc1ccc(S(=O)(=O)N2CCCSCC2)cc1 | > 100 µM (inactive) | > 100 µM (inactive) | > 100 µM (inactive) | > 100 µM (inactive) | – | > 100 µM (inactive) | > 100 µM (inactive) | > 100 µM (inactive) | – | > 100 µM (inactive) | – | > 100 µM (inactive) | – | – | > 100 µM (inactive) | > 100 µM (inactive) | > 100 µM (inactive) | > 100 µM (inactive) | > 100 µM (inactive) | > 100 µM (inactive)
3 | C/C(=N/NS(=O)(=O)c1ccc([N+](=O)[O-])cc1)c1cccc[n+]1[O-] | > 100 µM (inactive) | > 100 µM (inactive) | > 100 µM (inactive) | > 100 µM (inactive) | > 100 µM (inactive) | – | > 100 µM (inactive) | > 100 µM (inactive) | > 100 µM (inactive) | > 100 µM (inactive) | > 100 µM (inactive) | > 100 µM (inactive) | > 100 µM (inactive) | – | > 100 µM (inactive) | > 100 µM (inactive) | > 100 µM (inactive) | > 100 µM (inactive) | > 100 µM (inactive) | > 100 µM (inactive)
4 | CCOC(=O)/C(=C/c1cn(C(C)=O)c2ccccc12)P(=O)(OC)OC | 15.3 µM (inactive) | 31.4 µM (inactive) | 30.8 µM (inactive) | 31.1 µM (inactive) | 25.6 µM (inactive) | – | 33.8 µM (inactive) | 24.4 µM (inactive) | 40.6 µM (inactive) | 46.7 µM (inactive) | 19.9 µM (inactive) | – | – | 31.1 µM (inactive) | 23.1 µM (inactive) | 25.1 µM (inactive) | 24.8 µM (inactive) | > 100 µM (inactive) | 30.4 µM (inactive) | 19.1 µM (inactive)
5 | CCN1C(=O)c2cc(OC)c(OC)cc2C(=O)C12OC(=O)c1cc3c(cc12)OCO3 (configuration not stated) | > 100 µM (inactive) | > 100 µM (inactive) | 33.1 µM (inactive) | 55.3 µM (inactive) | 97.9 µM (inactive) | > 100 µM (inactive) | > 100 µM (inactive) | 43.4 µM (inactive) | > 100 µM (inactive) | 48 µM (inactive) | 24.1 µM (inactive) | 69.7 µM (inactive) | 53.2 µM (inactive) | 20.2 µM (inactive) | 85.9 µM (inactive) | – | 51.4 µM (inactive) | 75.7 µM (inactive) | 43 µM (inactive) | > 100 µM (inactive)
6 | CCOC(=O)C(=O)Nc1cccc(C)c1C | > 100 µM (inactive) | > 100 µM (inactive) | > 100 µM (inactive) | > 100 µM (inactive) | > 100 µM (inactive) | > 100 µM (inactive) | > 100 µM (inactive) | > 100 µM (inactive) | > 100 µM (inactive) | > 100 µM (inactive) | > 100 µM (inactive) | > 100 µM (inactive) | > 100 µM (inactive) | > 100 µM (inactive) | > 100 µM (inactive) | > 100 µM (inactive) | > 100 µM (inactive) | > 100 µM (inactive) | > 100 µM (inactive) | > 100 µM (inactive)
7 | CN(NC(=O)c1cccs1)C1=NCCCN1 | > 100 µM (inactive) | > 100 µM (inactive) | > 100 µM (inactive) | > 100 µM (inactive) | > 100 µM (inactive) | > 100 µM (inactive) | > 100 µM (inactive) | > 100 µM (inactive) | > 100 µM (inactive) | > 100 µM (inactive) | > 100 µM (inactive) | > 100 µM (inactive) | > 100 µM (inactive) | > 100 µM (inactive) | > 100 µM (inactive) | > 100 µM (inactive) | > 100 µM (inactive) | > 100 µM (inactive) | > 100 µM (inactive) | > 100 µM (inactive)
8 | N=C(NNS(=O)(=O)c1ccccc1)Oc1ccc(Cl)cc1 | > 100 µM (inactive) | > 100 µM (inactive) | 65.8 µM (inactive) | > 100 µM (inactive) | > 100 µM (inactive) | > 100 µM (inactive) | > 100 µM (inactive) | > 100 µM (inactive) | > 100 µM (inactive) | > 100 µM (inactive) | 70.1 µM (inactive) | > 100 µM (inactive) | > 100 µM (inactive) | > 100 µM (inactive) | > 100 µM (inactive) | > 100 µM (inactive) | 43.1 µM (inactive) | > 100 µM (inactive) | 60.3 µM (inactive) | > 100 µM (inactive)
9 | CC(C)c1cccc(C(C)C)c1OS(=O)(=O)NC(=O)OC(C(F)(F)F)C(F)(F)F | 71.9 µM (inactive) | 37.1 µM (inactive) | 31.5 µM (inactive) | 21.6 µM (inactive) | > 100 µM (inactive) | 35.8 µM (inactive) | 45.7 µM (inactive) | 46.7 µM (inactive) | > 100 µM (inactive) | 46.5 µM (inactive) | 16.4 µM (inactive) | 95.7 µM (inactive) | 30.6 µM (inactive) | 35.8 µM (inactive) | 53.2 µM (inactive) | 46.7 µM (inactive) | 36 µM (inactive) | > 100 µM (inactive) | 43.7 µM (inactive) | 53.7 µM (inactive)
10 | CCCCNC1=C2C(=O)NN=C2CO1 | > 100 µM (inactive) | > 100 µM (inactive) | > 100 µM (inactive) | > 100 µM (inactive) | > 100 µM (inactive) | > 100 µM (inactive) | > 100 µM (inactive) | > 100 µM (inactive) | > 100 µM (inactive) | > 100 µM (inactive) | > 100 µM (inactive) | > 100 µM (inactive) | > 100 µM (inactive) | > 100 µM (inactive) | > 100 µM (inactive) | > 100 µM (inactive) | > 100 µM (inactive) | > 100 µM (inactive) | > 100 µM (inactive) | > 100 µM (inactive)
11 | Cc1cc2oc3c(ccc(=O)n3C)c(=O)c2c(C)c1Cl | 46.8 µM (inactive) | 57.4 µM (inactive) | 34.9 µM (inactive) | 50.1 µM (inactive) | 32.1 µM (inactive) | 35.6 µM (inactive) | 44.6 µM (inactive) | 61 µM (inactive) | 72.9 µM (inactive) | 76.2 µM (inactive) | – | 55.5 µM (inactive) | 23.8 µM (inactive) | 40.6 µM (inactive) | 29 µM (inactive) | 75.5 µM (inactive) | 38.1 µM (inactive) | > 100 µM (inactive) | 38.2 µM (inactive) | –
12 | CCP(=O)(CC)C(Cl)(Cl)C(O)C(C)(C)C (configuration not stated) | > 100 µM (inactive) | > 100 µM (inactive) | > 100 µM (inactive) | > 100 µM (inactive) | > 100 µM (inactive) | > 100 µM (inactive) | > 100 µM (inactive) | > 100 µM (inactive) | > 100 µM (inactive) | > 100 µM (inactive) | > 100 µM (inactive) | – | – | > 100 µM (inactive) | > 100 µM (inactive) | > 100 µM (inactive) | > 100 µM (inactive) | > 100 µM (inactive) | > 100 µM (inactive) | > 100 µM (inactive)
13 | CC(C)(C)C(=O)OCC1OC(N=[N+]=[N-])C(OC(=O)C(C)(C)C)C(OC(=O)C(C)(C)C)C1OC(=O)C(C)(C)C (configuration not stated) | > 100 µM (inactive) | > 100 µM (inactive) | > 100 µM (inactive) | > 100 µM (inactive) | > 100 µM (inactive) | – | > 100 µM (inactive) | > 100 µM (inactive) | > 100 µM (inactive) | > 100 µM (inactive) | > 100 µM (inactive) | > 100 µM (inactive) | > 100 µM (inactive) | > 100 µM (inactive) | > 100 µM (inactive) | > 100 µM (inactive) | > 100 µM (inactive) | > 100 µM (inactive) | > 100 µM (inactive) | 82.2 µM (inactive)
14 | CC(C)(Br)C1(O)CCCN1C(=O)c1ccccc1 (configuration not stated) | > 100 µM (inactive) | > 100 µM (inactive) | > 100 µM (inactive) | > 100 µM (inactive) | > 100 µM (inactive) | – | > 100 µM (inactive) | > 100 µM (inactive) | > 100 µM (inactive) | > 100 µM (inactive) | – | > 100 µM (inactive) | > 100 µM (inactive) | > 100 µM (inactive) | > 100 µM (inactive) | > 100 µM (inactive) | > 100 µM (inactive) | > 100 µM (inactive) | > 100 µM (inactive) | > 100 µM (inactive)
15 | CCCCCCCCCCCC1=NCCN1 | 0.557 µM (active) | > 100 µM (inactive) | 56.6 µM (inactive) | 94 µM (inactive) | – | > 100 µM (inactive) | 93.8 µM (inactive) | 30.1 µM (inactive) | – | > 100 µM (inactive) | – | > 100 µM (inactive) | – | – | 38.6 µM (inactive) | > 100 µM (inactive) | 19.9 µM (inactive) | > 100 µM (inactive) | 49.9 µM (inactive) | > 100 µM (inactive)
